Among the data in patent US20050209278A1, “Piperidinyl- and piperazinyl-sulfonylmethyl hydroxamic acids and their use as protease inhibitors” (priority 2002, published 2005) are Ki values, retold here.

This test deals with T1, MMP-14 (Homo sapiens, UniProt P50281).
T1 construct: The catalytic domain enzyme was expressed in E. coli inclusion bodies, solubilized in urea; made in house
The test is described as follows: In vitro MMP inhibition, Ki determination (fluorogenic substrate II). Type of test: biochemical. Conditions: value not in parenthesis; read-out: MMP-14 Ki. In a few lines:
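Apparent Ki was fitted with Morrison's equation from reaction rates at a single low enzyme level. Enzyme was APMA- or trypsin-activated refolded MMP-14 catalytic domain, buffered at pH 7.5 with 10 mM CaCl2.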

Where only a bound is given, the exact number is not on record here.

Broadly, the Ki is a dissociation constant, usually derived from enzyme kinetics or from competition with a known ligand. `COc1ccc(-c2ccc(N3CCN(S(=O)(=O)C4(C(=O)NO)CCOCC4)CC3)nc2)cc1` [Example 61]: the Ki was found to be 0.199 µM.
To `O=C(NO)C1(S(=O)(=O)N2CCN(c3ccc(OC(F)(F)C(F)F)cc3)CC2)CCSCC1` [Example 62] belongs 1.15 µM.
To `CCCCOc1ccc(N2CCN(S(=O)(=O)C3(C(=O)NO)CC3)CC2)cc1` [Example 63] belongs greater than 10 µM.
To `CCCCOc1ccc(N2CCN(S(=O)(=O)C3(C(=O)NO)CCN(c4ccc(OC(F)(F)C(F)F)cc4)CC3)CC2)cc1` [Example 65] belongs greater than 10 µM; to `O=C(NO)C1(S(=O)(=O)N2CCN(c3ccc4c(c3)OC(F)(F)C(F)(F)O4)CC2)CCOCC1` [Example 67], greater than 10 µM.
For `O=C(NO)C1(S(=O)(=O)N2CCN(c3ccc(COCC(F)(F)C(F)(F)F)cc3)CC2)CCOCC1` [Example 70], the Ki was greater than 10 µM.
On to `CCCCOc1ccc(N2CCN(S(=O)(=O)C3(C(=O)NO)CCN(C(=O)c4ccco4)CC3)CC2)cc1` [Example 156], for which the inhibition constant (Ki) stood at 2.43 µM.
Take `CCCCOc1ccc(N2CCN(S(=O)(=O)C3(C(=O)NO)CCN(c4nccs4)CC3)CC2)cc1` [Example 157]: the Ki turned out to be 2.76 µM.
With `CCCCOc1ccc(N2CCN(S(=O)(=O)C3(C(=O)NO)CCN(c4ncccn4)CC3)CC2)cc1` [Example 159], the Ki came out at 2.06 µM.
`CCCCOc1ccc(N2CCN(S(=O)(=O)C3(C(=O)NO)CCN(C(=O)c4cccs4)CC3)CC2)cc1` [Example 160]: the Ki was 2.76 µM.
To `Cc1ccc(N2CCC(C(=O)NO)(S(=O)(=O)N3CCN(c4ccc(OCCCC(F)(F)F)cc4)CC3)CC2)cc1` [Example 161] belongs greater than 10 µM.
Next, `O=C(NO)C1(S(=O)(=O)N2CCN(c3ccc(OCCN4CCCC4)cc3)CC2)CCOCC1` [Example 162]: greater than 10 µM.
To `CCCCOc1ccc(N2CCN(S(=O)(=O)C3(C(=O)NO)CCN(CCOC)CC3)CC2)cn1` [Example 164] belongs 8.88 µM.
Consider `CCCCOc1c(F)cc(N2CCN(S(=O)(=O)C3(C(=O)NO)CCN(CCOC)CC3)CC2)cc1F` [Example 165], for which the Ki was 3.65 µM.
To `COCCN1CCC(C(=O)NO)(S(=O)(=O)N2CCN(c3ccc(OCC(C)C)c(F)c3)CC2)CC1` [Example 166] belongs greater than 10 µM; to `CCCCCc1ccc(N2CCN(S(=O)(=O)C3(C(=O)NO)CCOCC3)CC2)nc1` [Example 167], 0.458 µM; to `O=C(NO)C1(S(=O)(=O)N2CCN(c3ccccn3)CC2)CCOCC1` [Example 169], 0.0849 µM.
In the case of `O=C(NO)C1(S(=O)(=O)N2CCN(c3ccc(SC(F)(F)F)cc3)CC2)CCOCC1` [Example 170], the Ki amounted to 0.453 µM.
Regarding `CCCc1ccc(N2CCN(S(=O)(=O)C3(C(=O)NO)CCN(c4ccc(C)cc4)CC3)CC2)cc1` [Example 171], the Ki came out at 4.11 µM.
To `CCCCc1ccc(N2CCN(S(=O)(=O)C3(C(=O)NO)CCN(CCOC)CC3)CC2)cc1F` [Example 173] belongs 1.86 µM.
Consider `COCCN1CCC(C(=O)NO)(S(=O)(=O)N2CCN(c3ccc(C(C)=O)cc3)CC2)CC1` [Example 174], for which the Ki worked out at 2.91 µM.
Next, `CCCNC(=O)c1ccc(N2CCN(S(=O)(=O)C3(C(=O)NO)CCN(CCOC)CC3)CC2)cc1` [Example 175]: greater than 10 µM; `COCCN1CCC(C(=O)NO)(S(=O)(=O)N2CCN(c3ccccn3)CC2)CC1` [Example 176]: 0.181 µM; `CCCCC(=O)c1ccc(N2CCN(S(=O)(=O)C3(C(=O)NO)CCN(CCOC)CC3)CC2)cc1` [Example 177]: greater than 10 µM.
To `CCCc1cnc(N2CCN(S(=O)(=O)C3(C(=O)NO)CCN(CCOC)CC3)CC2)nc1` [Example 178] belongs 2.59 µM.
Next, `CCCCCc1ccc(N2CCN(S(=O)(=O)C3(C(=O)NO)CCN(S(N)(=O)=O)CC3)CC2)cc1` [Example 205]: 5.02 µM.
On to `CCCCCc1ccc(N2CCN(S(=O)(=O)C3(C(=O)NO)CCN(C(=O)CC)CC3)CC2)cc1` [Example 206], for which the Ki stood at 0.11 µM.
As to `Cc1ccc(-c2ccc(N3CCN(S(=O)(=O)C4(C(=O)NO)CCOCC4)CC3)cc2)cc1` [Example 207], the inhibition constant (Ki) is greater than 10 µM.
Next, `O=C(NO)C1(S(=O)(=O)N2CCN(c3ccc(-c4ccc(F)cc4)cc3)CC2)CCOCC1` [Example 208]: 0.621 µM; `O=C(NO)C1(S(=O)(=O)N2CCN(c3cnc(CCCC(F)(F)F)cn3)CC2)CCOCC1` [Example 209]: greater than 10 µM; `O=C(NO)C1(S(=O)(=O)N2CCN(c3cnc(CCC(F)(F)C(F)(F)F)cn3)CC2)CCOCC1` [Example 210]: 4.47 µM.
To `O=C(NO)C1(S(=O)(=O)N2CCN(c3ccc(OCC(F)(F)C(F)(F)F)cc3)CC2)CCOCC1` [Example 212] belongs 5.63 µM.
To `CC(C)Cc1ccc(N2CCN(S(=O)(=O)C3(C(=O)NO)CCOCC3)CC2)c(F)c1` [Example 213] belongs 4.28 µM.
As to `CCCCc1nnc(N2CCN(S(=O)(=O)C3(C(=O)NO)CCOCC3)CC2)s1` [Example 214], the Ki is greater than 10 µM.
On to `O=C(NO)C1(S(=O)(=O)N2CCN(c3nncs3)CC2)CCOCC1` [Example 215], for which the Ki is greater than 10 µM.
As to `CCCc1nnc(N2CCN(S(=O)(=O)C3(C(=O)NO)CCOCC3)CC2)s1` [Example 216], the Ki is greater than 10 µM.
To `CCCCc1ccc(N2CCN(S(=O)(=O)C(C)C(=O)NO)CC2)nc1` (centres unmarked) [Example 217] belongs 1.51 µM; to `O=C(NO)C1(S(=O)(=O)N2CCN(c3cnc(CCC(F)(F)F)cn3)CC2)CCOCC1` [Example 218], 4.57 µM.
As for `CCCCCc1cnc(N2CCN(S(=O)(=O)C3(C(=O)NO)CCOCC3)CC2)cn1` [Example 219], the Ki is 3.21 µM.
On to `CCCCOc1ccc(N2CCN(S(=O)(=O)C3(C(=O)NO)CCN(c4ccc5c(c4)OCO5)CC3)CC2)cc1` [Example 221], for which the Ki was greater than 10 µM.
`CCCCOc1ccc(N2CCN(S(=O)(=O)C3(C(=O)NO)CCS(=O)(=O)CC3)CC2)cc1` [Example 222]: the Ki is greater than 10 µM.
To `CCCCOc1ccc(N2CCN(S(=O)(=O)C3(C(=O)NO)CCN(c4ccsc4)CC3)CC2)cc1` [Example 223] belongs 7.1 µM; to `CCCCOc1ccc(N2CCN(S(=O)(=O)C3(C(=O)NO)CCN(c4ccc(C#N)cc4)CC3)CC2)cc1` [Example 225], greater than 10 µM.
Next, `CCCCOc1ccc(N2CCN(S(=O)(=O)C3(C(=O)NO)CCN(c4cccc(C)c4)CC3)CC2)cc1` [Example 226]: greater than 10 µM; `COCCSc1ccc(N2CCN(S(=O)(=O)C3(C(=O)NO)CCOCC3)CC2)cc1` [Example 227]: 1.68 µM; `CCCCOc1ccc(N2CCN(S(=O)(=O)C3(C(=O)NO)CCN(c4ccc(OC)c(OC)c4)CC3)CC2)cc1` [Example 229]: 7.88 µM.
Next, `CCCCOc1ccc(N2CCN(S(=O)(=O)C3(C(=O)NO)CCN(C(=O)N4CCN(C)CC4)CC3)CC2)cc1` [Example 230]: 2.51 µM.
On to `CCCCOc1ccc(N2CCN(S(=O)(=O)C3(C(=O)NO)CCN(C(=O)N4CCCC4)CC3)CC2)cc1` [Example 231], for which the Ki was 1.53 µM.
Next, `CCCCOc1ccc(N2CCN(S(=O)(=O)C3(C(=O)NO)CCSCC3)CC2)cc1` [Example 232]: 3.51 µM; `CCCCOc1ccc(N2CCN(S(=O)(=O)C3(C(=O)NO)CCN(CCN4CCOCC4)CC3)CC2)cc1` [Example 233]: 3.08 µM.
To `CCOCCSc1ccc(N2CCN(S(=O)(=O)C3(C(=O)NO)CCOCC3)CC2)cc1` [Example 234] belongs 2.88 µM; to `CCCCOc1ccc(N2CCN(S(=O)(=O)C3(C(=O)NO)CCN(CCN(CC)CC)CC3)CC2)cc1` [Example 235], 3.96 µM; to `CCCCCc1ccc(N2CCN(S(=O)(=O)C3(C(=O)NO)CCN(S(=O)(=O)N(C)C)CC3)CC2)cc1` [Example 236], greater than 10 µM.
As for `CCCCCc1ccc(N2CCN(S(=O)(=O)C3(C(=O)NO)CCN(S(C)(=O)=O)CC3)CC2)cc1` [Example 237], the Ki came to 7.12 µM.
Next, `CCCCOc1ccc(N2CCN(S(=O)(=O)C3(C(=O)NO)CCN(CCCC(F)(F)F)CC3)CC2)cc1` [Example 238]: 6.04 µM.
To `CCCCCc1ccc(N2CCN(S(=O)(=O)C3(C(=O)NO)CCN(C(C)=O)CC3)CC2)cc1` [Example 239] belongs 1.05 µM.
Consider `CCCCOc1ccc(N2CCN(S(=O)(=O)C3(C(=O)NO)CCN(C(=O)NC(C)(C)C)CC3)CC2)cc1` [Example 240], for which the Ki came out at 3.96 µM.
To `CCCCOc1ccc(N2CCN(S(=O)(=O)C3(C(=O)NO)CCN(c4ccc(N(C)C)cc4)CC3)CC2)cc1` [Example 241] belongs greater than 10 µM.
Next, `CCCCOc1ccc(N2CCN(S(=O)(=O)C3(C(=O)NO)CCN(C(=O)N(CC)CC)CC3)CC2)cc1` [Example 242]: 2.39 µM.
Turning to `CCCCOc1ccc(N2CCN(S(=O)(=O)C3(C(=O)NO)CCN(C(=O)N4CCCCC4)CC3)CC2)cc1` [Example 243], the Ki came out at 2.05 µM.
To `CCCCOc1ccc(N2CCN(S(=O)(=O)C3(C(=O)NO)CCN(C(=O)N(C(C)C)C(C)C)CC3)CC2)cc1` [Example 244] belongs 5.31 µM.
Regarding `CCCCOc1ccc(N2CCN(S(=O)(=O)C3(C(=O)NO)CCN(Cc4nccn4C)CC3)CC2)cc1` [Example 245], the Ki was determined as 2.81 µM.
With `CCCCOc1ccc(N2CCN(S(=O)(=O)C3(C(=O)NO)CCN(Cc4ccc(C)o4)CC3)CC2)cc1` [Example 246], the Ki was 5.95 µM.
To `CCCCOc1ccc(N2CCN(S(=O)(=O)C3(C(=O)NO)CCN(Cc4ncc[nH]4)CC3)CC2)cc1` [Example 247] belongs 1.98 µM.
For the compound `CCCCOc1ccc(N2CCN(S(=O)(=O)C3(C(=O)NO)CCN(c4ccc(OC)cc4)CC3)CC2)cc1` [Example 249], the Ki was greater than 10 µM.
